Data taken from patent publication US8906946B2, “TRPM8 receptor antagonists” (Dompe' S.p.A., priority 2011, dated 2014).

How the values were obtained:
CYP2C19 = CYP2C19 (Homo sapiens, UniProt P33261); assay: CYP inhibition 2C19; format: in vitro ADME; conditions: 2C19, 10 μM
CYP2C9 = CYP2C9 (Homo sapiens, UniProt P11712); assay: CYP inhibition 2C9; format: in vitro ADME; conditions: 2C9, 10 μM
hERG = hERG (Homo sapiens, UniProt Q12809); assay: hERG binding
[1] = tested on: rhythmic bladder contractions; assay: Isovolumetric bladder model, intravenous protocol; format: in vivo, rat; conditions: 10 mg/kg i.v., anesthetized female rats
Experimental: (§1) Female rats were anesthetized with urethane. Ureters were ligated and sectioned. A catheter was inserted through the urinary meatus into the bladder before urethral ligature. Two protocols for testing compounds were used: intravenous (i.v.) or intravesical (i.ves.) administration.
In the first protocol, the bladder was filled by step of 100 μL of saline every 5 min until the occurrence of rhythmic bladder contractions (RBC). After a 30 min control period, compound (1) dissolved in solutol/NMP solution (2:1 w/w) at a dosage of 10 mg/kg, or vehicle were administered i.v (1 ml in 5 min) […] and the resulting effect was followed for 60 min. For each group, Micturition Frequency (MF) and Amplitude of Micturition (AM) were measured during the control and treatment periods.

[2] = Plasma Protein Binding, human; format: in vitro ADME
hTRPV1 channels = molecular target: T1, hTRPV1 channels (Homo sapiens, UniProt Q8NER1); assay: Selectivity analysis, calcium influx assay, hTRPV1 in HEK293 cells; format: cell-based
T1 construct: expressed in transfected cells; host or cells: HEK293
Experimental: (§2) The objective of this study was to evaluate the effects in vitro of compound 1 on 3 cloned human channels expressed in HEK293 or CHO cells using the Fluo-8 calcium kit (AAT Bioquest, Inc.), and a Fluorescence Imaging Plate Reader (FLIPR^TETRA™) instrument. The following 3 cloned human channels were evaluated in this study. • 1. Cloned hTRPM8 channels (encoded by the human TRPM8 gene, stably expressed in CHO cells), • 2. Cloned hTRPV1 channels (encoded by the human TRPV1 gene, stably expressed in HEK293 cells), • 3. Cloned hTRPV4 channels (encoded by the human TRPV4 gene, stably expressed in CHO cells).
(§3) The effects of […] (0.001, 0.01, 1, and 10 μM) of compound (1) were evaluated on these three TRP channels (n>3) using the following experimental procedure for each channel tested:
(§4) The ability of compound (1) to act as an antagonist of TRPV1 was evaluated with a calcium influx assay. The signal elicited in the presence of the positive control agonist (0.1 μM capsaicin) was set to 100% and the signal in the presence of the antagonist (5 μM ruthenium red) was set to 0.

CYP1A2 = molecular target: T2, CYP1A2 (Homo sapiens, UniProt P05177); assay: CYP inhibition 1A2; format: in vitro ADME; conditions: 1A2, 10 μM
T2 sequence (P05177 1-516): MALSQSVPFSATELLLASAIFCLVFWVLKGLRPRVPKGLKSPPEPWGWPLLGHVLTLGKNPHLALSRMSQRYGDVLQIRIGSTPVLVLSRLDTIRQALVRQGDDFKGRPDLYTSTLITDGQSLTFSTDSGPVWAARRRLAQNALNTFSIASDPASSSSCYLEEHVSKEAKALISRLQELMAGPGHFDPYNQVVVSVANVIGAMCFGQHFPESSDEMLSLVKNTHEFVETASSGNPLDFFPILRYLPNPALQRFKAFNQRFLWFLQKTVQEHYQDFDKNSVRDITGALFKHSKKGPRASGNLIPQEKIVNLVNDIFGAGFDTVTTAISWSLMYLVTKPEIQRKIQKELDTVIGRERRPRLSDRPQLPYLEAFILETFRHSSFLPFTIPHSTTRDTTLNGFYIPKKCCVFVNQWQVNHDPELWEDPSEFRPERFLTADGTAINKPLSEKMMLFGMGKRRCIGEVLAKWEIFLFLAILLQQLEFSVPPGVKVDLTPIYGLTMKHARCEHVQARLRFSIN

hTRPV4 channels = molecular target: T3, hTRPV4 channels (Homo sapiens, UniProt Q9HBA0); assay: Selectivity analysis, calcium influx assay, hTRPV4 in CHO cells; format: cell-based
T3 construct: expressed in transfected cells; host or cells: CHO
Experimental: as §2, §3
as §4, with “TRPV4” for “TRPV1”, “(10” for “(0.1”, “GSK1016790A)” for “capsaicin)”, “0. Values were considered significant if the test article mean was three or more standard deviations away from the positive control agonist mean.” for “0.”

[3] = tested on: rhythmic bladder contractions; assay: Isovolumetric bladder model, intravesical protocol; format: in vivo, rat
Experimental: as §1
In the second protocol, the bladder was filled first 3 times every 5 min with 100 μL of a solution of solutol/NMP […] containing 0.756 mg of compound (1) or with 100 μL of vehicle, then with 100 μL of saline every 5 min until the occurrence of RBC. A maximal volume of 3 mL was infused. The threshold volume inducing RBC in each group was compared. […] Furthermore, the threshold volume (TV) in the group treated with compound (1) reached 3 mL without RBC occurrence whereas, in the vehicle group, RBC occurred in all rats with a mean volume of 0.7±0.09 ml.

T3 sequence (Q9HBA0 whole entry): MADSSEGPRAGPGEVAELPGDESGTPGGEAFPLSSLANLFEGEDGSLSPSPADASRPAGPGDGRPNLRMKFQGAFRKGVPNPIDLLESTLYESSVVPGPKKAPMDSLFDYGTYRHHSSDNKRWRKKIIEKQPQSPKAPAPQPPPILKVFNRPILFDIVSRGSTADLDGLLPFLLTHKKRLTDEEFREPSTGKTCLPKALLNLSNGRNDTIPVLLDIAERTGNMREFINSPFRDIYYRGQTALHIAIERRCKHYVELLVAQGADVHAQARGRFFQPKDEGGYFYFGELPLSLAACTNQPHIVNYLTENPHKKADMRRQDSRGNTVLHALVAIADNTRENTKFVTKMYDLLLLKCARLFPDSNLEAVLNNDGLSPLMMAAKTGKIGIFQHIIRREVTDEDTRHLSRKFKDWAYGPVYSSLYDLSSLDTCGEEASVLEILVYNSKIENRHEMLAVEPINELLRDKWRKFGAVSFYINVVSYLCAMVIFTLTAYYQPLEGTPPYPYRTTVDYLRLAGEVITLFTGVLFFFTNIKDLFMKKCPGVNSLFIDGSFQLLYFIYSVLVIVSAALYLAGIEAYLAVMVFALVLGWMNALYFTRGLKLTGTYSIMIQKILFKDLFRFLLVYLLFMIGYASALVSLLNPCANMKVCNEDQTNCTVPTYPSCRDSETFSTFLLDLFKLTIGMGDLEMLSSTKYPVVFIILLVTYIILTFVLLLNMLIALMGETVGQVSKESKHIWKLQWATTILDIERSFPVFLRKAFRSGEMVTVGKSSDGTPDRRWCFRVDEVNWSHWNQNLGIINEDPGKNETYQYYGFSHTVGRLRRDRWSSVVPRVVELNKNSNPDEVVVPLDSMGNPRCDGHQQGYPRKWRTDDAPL
T1 sequence (Q8NER1 whole entry): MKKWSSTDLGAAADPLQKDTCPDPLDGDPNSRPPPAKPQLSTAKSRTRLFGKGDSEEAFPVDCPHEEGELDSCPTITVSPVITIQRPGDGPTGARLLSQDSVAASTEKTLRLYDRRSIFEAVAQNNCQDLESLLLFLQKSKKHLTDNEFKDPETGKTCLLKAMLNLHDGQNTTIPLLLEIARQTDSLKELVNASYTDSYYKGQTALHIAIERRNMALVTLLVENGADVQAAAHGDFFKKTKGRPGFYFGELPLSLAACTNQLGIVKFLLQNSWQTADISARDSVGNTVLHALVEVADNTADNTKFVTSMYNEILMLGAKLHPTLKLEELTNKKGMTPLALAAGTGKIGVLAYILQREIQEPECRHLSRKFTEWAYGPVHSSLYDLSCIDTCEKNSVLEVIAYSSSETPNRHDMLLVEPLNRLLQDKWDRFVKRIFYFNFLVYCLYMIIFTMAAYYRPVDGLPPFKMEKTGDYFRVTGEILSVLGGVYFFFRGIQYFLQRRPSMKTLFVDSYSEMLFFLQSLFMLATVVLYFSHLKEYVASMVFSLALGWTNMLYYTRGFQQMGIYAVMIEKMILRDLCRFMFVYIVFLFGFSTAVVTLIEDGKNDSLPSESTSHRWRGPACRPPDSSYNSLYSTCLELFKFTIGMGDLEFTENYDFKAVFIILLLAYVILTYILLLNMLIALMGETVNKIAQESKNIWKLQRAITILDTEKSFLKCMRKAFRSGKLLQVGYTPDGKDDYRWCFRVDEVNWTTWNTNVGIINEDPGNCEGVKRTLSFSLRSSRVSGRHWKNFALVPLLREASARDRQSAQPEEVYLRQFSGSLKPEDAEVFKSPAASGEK
Sequence of CYP2C9 (P11712 whole entry): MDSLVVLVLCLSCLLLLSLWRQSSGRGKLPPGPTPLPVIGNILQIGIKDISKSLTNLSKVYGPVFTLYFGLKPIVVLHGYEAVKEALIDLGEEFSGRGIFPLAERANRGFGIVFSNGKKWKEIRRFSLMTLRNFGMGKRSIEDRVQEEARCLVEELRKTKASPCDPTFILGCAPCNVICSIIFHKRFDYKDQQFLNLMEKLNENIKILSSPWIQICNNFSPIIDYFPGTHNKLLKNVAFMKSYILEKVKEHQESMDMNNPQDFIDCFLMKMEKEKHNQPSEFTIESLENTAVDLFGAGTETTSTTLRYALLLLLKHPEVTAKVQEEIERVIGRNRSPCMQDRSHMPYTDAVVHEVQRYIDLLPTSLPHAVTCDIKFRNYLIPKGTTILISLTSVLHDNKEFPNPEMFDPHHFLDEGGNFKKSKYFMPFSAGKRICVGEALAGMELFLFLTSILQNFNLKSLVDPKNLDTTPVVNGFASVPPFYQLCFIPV
Sequence of hERG (Q12809 whole entry): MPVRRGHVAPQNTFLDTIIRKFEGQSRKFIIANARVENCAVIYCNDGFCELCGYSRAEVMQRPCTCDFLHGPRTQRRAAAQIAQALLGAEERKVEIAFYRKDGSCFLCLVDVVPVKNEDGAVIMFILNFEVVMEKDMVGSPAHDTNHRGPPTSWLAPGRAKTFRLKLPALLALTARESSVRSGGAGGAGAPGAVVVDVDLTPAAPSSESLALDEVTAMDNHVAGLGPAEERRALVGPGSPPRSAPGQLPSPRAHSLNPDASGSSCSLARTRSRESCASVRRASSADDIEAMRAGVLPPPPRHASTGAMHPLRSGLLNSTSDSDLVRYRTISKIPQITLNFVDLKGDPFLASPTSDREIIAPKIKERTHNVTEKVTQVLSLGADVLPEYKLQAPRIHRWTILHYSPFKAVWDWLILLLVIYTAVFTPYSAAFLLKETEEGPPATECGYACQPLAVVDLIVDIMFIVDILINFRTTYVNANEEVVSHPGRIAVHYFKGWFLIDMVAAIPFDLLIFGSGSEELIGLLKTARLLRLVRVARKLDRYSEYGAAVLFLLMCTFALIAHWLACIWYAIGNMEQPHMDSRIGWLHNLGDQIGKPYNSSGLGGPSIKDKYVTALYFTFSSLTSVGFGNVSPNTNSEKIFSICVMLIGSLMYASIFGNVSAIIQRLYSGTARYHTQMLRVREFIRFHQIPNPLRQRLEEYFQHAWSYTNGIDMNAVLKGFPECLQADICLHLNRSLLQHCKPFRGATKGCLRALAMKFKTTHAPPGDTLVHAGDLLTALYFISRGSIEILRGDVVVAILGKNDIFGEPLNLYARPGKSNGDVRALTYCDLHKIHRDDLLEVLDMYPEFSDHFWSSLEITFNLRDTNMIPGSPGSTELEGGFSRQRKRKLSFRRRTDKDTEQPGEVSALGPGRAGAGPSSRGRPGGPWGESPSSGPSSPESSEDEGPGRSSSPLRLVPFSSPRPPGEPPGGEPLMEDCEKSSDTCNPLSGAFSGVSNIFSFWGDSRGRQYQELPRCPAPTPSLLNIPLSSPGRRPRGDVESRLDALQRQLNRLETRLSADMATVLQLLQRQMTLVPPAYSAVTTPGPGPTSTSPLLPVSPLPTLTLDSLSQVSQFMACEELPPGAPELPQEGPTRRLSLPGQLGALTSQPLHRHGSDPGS
Sequence of CYP2C19 (P33261 whole entry): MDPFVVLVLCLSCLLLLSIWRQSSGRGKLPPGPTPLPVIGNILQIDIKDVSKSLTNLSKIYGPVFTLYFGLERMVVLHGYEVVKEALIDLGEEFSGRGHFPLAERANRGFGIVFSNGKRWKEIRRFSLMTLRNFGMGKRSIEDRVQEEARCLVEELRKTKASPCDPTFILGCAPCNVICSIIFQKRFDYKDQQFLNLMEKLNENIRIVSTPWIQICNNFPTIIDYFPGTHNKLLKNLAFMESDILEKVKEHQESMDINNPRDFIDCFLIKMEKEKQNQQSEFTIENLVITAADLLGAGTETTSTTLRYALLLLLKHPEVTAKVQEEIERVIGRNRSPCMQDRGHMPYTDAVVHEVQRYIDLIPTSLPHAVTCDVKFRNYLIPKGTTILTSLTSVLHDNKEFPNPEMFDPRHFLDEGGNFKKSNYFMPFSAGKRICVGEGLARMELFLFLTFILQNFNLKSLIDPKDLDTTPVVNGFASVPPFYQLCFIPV

Cl.Clc1c(OCCNCc2ccco2)ccc2ccccc12 [Compound 1, 2-[(1-chloronaphthalen-2-yl)oxy]-N-(furan-2-ylmethyl)ethanaminium chloride]
inhibition at 10 µM (CYP2C19): 55.3%
inhibition at 10 µM (CYP2C9): 63.1%
hERG binding @10 μM (hERG): No effect
time of inhibition of RBC, higher compared to vehicle group [1]: about 300 sec
reduction of Micturition Frequency (MF) ([1]; first 30 min): about 36%
fraction unbound at 10 μM [2]: 0.02
inhibition at 0.001 µM (hTRPV1 channels; HEK293, 0.001 μM, 0.1 μM capsaicin = 100%, 5 μM ruthenium red = 0, read-out: normalized % inhibition TRPV1): -9.14%
inhibition at 0.01 µM (hTRPV1 channels; HEK293, 0.01 μM, 0.1 μM capsaicin, read-out: normalized % inhibition TRPV1): 5.29%
inhibition at 0.1 µM (hTRPV1 channels; HEK293, 0.1 μM, 0.1 μM capsaicin, read-out: normalized % inhibition TRPV1): 2.12%
inhibition at 1 µM (hTRPV1 channels; HEK293, 1 μM, 0.1 μM capsaicin, read-out: normalized % inhibition TRPV1): 5.37%
inhibition at 10 µM (hTRPV1 channels; HEK293, 10 μM, 0.1 μM capsaicin, read-out: normalized % inhibition TRPV1): 4.9%
inhibition of TRPV1 ion channel (in words) (hTRPV1 channels; all the assay concentrations): do not show any relevant inhibition
inhibition at 10 µM (CYP1A2): 98.8%
inhibition at 0.001 µM (hTRPV4 channels; 0.001 μM, 10 μM GSK1016790A = 100%, 5 μM ruthenium red = 0, read-out: normalized % inhibition TRPV4): 13.3%
inhibition at 0.01 µM (hTRPV4 channels; 0.01 μM, 10 μM GSK1016790A, read-out: normalized % inhibition TRPV4): 9.03%
inhibition at 0.1 µM (hTRPV4 channels; 0.1 μM, 10 μM GSK1016790A, read-out: normalized % inhibition TRPV4): 12.2%
inhibition at 1 µM (hTRPV4 channels; 1 μM, 10 μM GSK1016790A, read-out: normalized % inhibition TRPV4): 1.97%
inhibition at 10 µM (hTRPV4 channels; 10 μM, 10 μM GSK1016790A, read-out: normalized % inhibition TRPV4): 85.7%
effect on Amplitude of Micturition (AM) [3]: did not change AM
effect on rhythmic bladder contractions (RBC) ([3]; 3 x 100 μL containing 0.756 mg): completely abolished RBC
threshold volume (TV) inducing RBC ([3]; maximal volume infused 3 mL, no RBC occurrence): > 3 mL
